{
  "source": "patent US10189816B2",
  "about": "“Substituted pyridines as inhibitors of human immunodeficiency virus replication” (priority 2015, dated 2019)",
  "note": "pEC50: −log10 of the molar value.",
  "data": [
    {"test_system": "NL-RLuc virus", "assay": "Inhibition of HIV replication (NL-RLuc reporter virus in MT-2 cells, luciferase readout)", "format": "cell-based", "conditions": "Human immunodeficiency virus 1, MT2, 120 h, read-out: Activity", "excerpt": "(§1) Inhibition of HIV replication: A recombinant NL-RLuc proviral clone was constructed in which a section of the nef gene from NL4-3 was replaced with the Renilla Luciferase gene. This virus is fully infectious and can undergo multiple cycles of replication in cell culture. In addition, the luciferous reporter provides a simple and easy method for quantitating the extent of virus growth and consequently, the antiviral activity of test compounds. The plasmid pNLRLuc contains the proviral NL-Rluc DNA cloned into pUC18 at the PvuII site. The NL-RLuc virus was prepared by transfection of 293T cells with the plasmid pNLRLuc. Transfections were performed using the LipofectAMINE PLUS kit from Invitrogen (Carlsbad, Calif.) according to the manufacturer and the virus generated was titered in MT-2 cells. For susceptibility analyses, the titrated virus was used to infect MT-2 cells in the presence of compound, and after 5 days of incubation, cells were processed and quantitated for virus growth by the amount of expressed luciferase. Assay media was RPMI 1640 supplemented with 10% heat inactivated fetal bovine serum (FBS), 100 units/ml penicillin G/100 units/ml streptomycin, 10 mM HEPES buffer pH 7.55 and 2 mM L-glutamine. The results from at least 2 experiments were used to calculate the EC50 values. Luciferase was quantitated using the Dual Luciferase kit from Promega (Madison, Wis.). Susceptibility of viruses to compounds was determined by incubation in the presence of serial dilutions of the compound. The 50% effective concentration (EC50) was calculated by using the exponential form of the median effect equation where (Fa)=1/[1+(ED50/drug conc.)^m] (Johnson V A, Byington R T. Infectivity Assay. In Techniques in HIV Research. ed. Aldovini A, Walker B D. 71-76. New York: Stockton Press.1990). Activity equal to A refers to a compound having an EC50≤100 nM, while B and C denote compounds having an EC50 between 100 nM and 1 uM (B) or >1 uM (C).", "values": [
      {"molecule": "Cc1nc(C)c([C@H](OC(C)(C)C)C(=O)O)c(N2CCC(C)(C)CC2)c1-c1ccc2c(c1)CCN(Cc1ccc(F)c(OC(F)(F)F)c1)C2", "note": "[Compound 120, (S)-2-(tert-butoxy)-2-(4-(4,4-dimethylpiperidin-1-yl)-5-(2-(4-fluoro-3-(trifluoromethoxy)benzyl)-1,2,3,4-tetrahydroisoquinolin-6-yl)-2,6-dimethylpyridin-3-yl)acetic acid]", "pEC50": "> 7.00"},
      {"molecule": "Cc1ccc(C)c(CN2CCc3cc(-c4c(C)nc(C)c([C@H](OC(C)(C)C)C(=O)O)c4N4CCC(C)(C)CC4)ccc3C2)c1", "note": "[Compound 29, (S)-2-(tert-butoxy)-2-(5-(2-(2,5-dimethylbenzyl)-1,2,3,4-tetrahydroisoquinolin-6-yl)-4-(4,4-dimethylpiperidin-1-yl)-2,6-dimethylpyridin-3-yl)acetic acid]", "pEC50": "> 7.00"},
      {"molecule": "Cc1cc(C)c(CN2CCc3cc(-c4c(C)nc(C)c([C@H](OC(C)(C)C)C(=O)O)c4N4CCC(C)(C)CC4)ccc3C2)cc1C", "note": "[Compound 78, (S)-2-(tert-butoxy)-2-(4-(4,4-dimethylpiperidin-1-yl)-2,6-dimethyl-5-(2-(2,4,5-trimethylbenzyl)-1,2,3,4-tetrahydroisoquinolin-6-yl)pyridin-3-yl)acetic acid]", "pEC50": "> 7.00"},
      {"molecule": "COc1ccc(Cl)cc1CN1CCc2cc(-c3c(C)nc(C)c([C@H](OC(C)(C)C)C(=O)O)c3N3CCC(C)(C)CC3)ccc2C1", "note": "[Compound 99, (S)-2-(tert-butoxy)-2-(5-(2-(5-chloro-2-methoxybenzyl)-1,2,3,4-tetrahydroisoquinolin-6-yl)-4-(4,4-dimethylpiperidin-1-yl)-2,6-dimethylpyridin-3-yl)acetic acid]", "pEC50": "> 7.00"},
      {"molecule": "Cc1ccc(Cl)cc1CN1CCc2cc(-c3c(C)nc(C)c([C@H](OC(C)(C)C)C(=O)O)c3N3CCC(C)(C)CC3)ccc2C1", "note": "[Compound 133, (S)-2-(tert-butoxy)-2-(5-(2-(5-chloro-2-methylbenzyl)-1,2,3,4-tetrahydroisoquinolin-6-yl)-4-(4,4-dimethylpiperidin-1-yl)-2,6-dimethylpyridin-3-yl)acetic acid]", "pEC50": "> 7.00"},
      {"molecule": "Cc1nc(C)c([C@H](OC(C)(C)C)C(=O)O)c(N2CCC(C)(C)CC2)c1-c1ccc2c(c1)CCN(Cc1cccc(OC(C)C)c1)C2", "note": "[Compound 154, (S)-2-(tert-butoxy)-2-(4-(4,4-dimethylpiperidin-1-yl)-5-(2-(3-isopropoxybenzyl)-1,2,3,4-tetrahydroisoquinolin-6-yl)-2,6-dimethylpyridin-3-yl)acetic acid]", "pEC50": "> 7.00"},
      {"molecule": "Cc1nc(C)c([C@H](OC(C)(C)C)C(=O)O)c(N2CCC(C)(C)CC2)c1-c1ccc2c(c1)CCN(Cc1cccc(C(F)(F)F)c1F)C2", "note": "[Compound 32, (S)-2-(tert-butoxy)-2-(4-(4,4-dimethylpiperidin-1-yl)-5-(2-(2-fluoro-3-(trifluoromethyl)benzyl)-1,2,3,4-tetrahydroisoquinolin-6-yl)-2,6-dimethylpyridin-3-yl)acetic acid]", "pEC50": "> 7.00"},
      {"molecule": "Cc1nc(C)c([C@H](OC(C)(C)C)C(=O)O)c(N2CCC(C)(C)CC2)c1-c1ccc2c(c1)CCN(Cc1ccc(F)c(F)c1)C2", "note": "[Compound 37, (S)-2-(tert-butoxy)-2-(5-(2-(3,4-difluorobenzyl)-1,2,3,4-tetrahydroisoquinolin-6-yl)-4-(4,4-dimethylpiperidin-1-yl)-2,6-dimethylpyridin-3-yl)acetic acid]", "pEC50": "> 7.00"},
      {"molecule": "Cc1nc(C)c([C@H](OC(C)(C)C)C(=O)O)c(N2CCC(C)(C)CC2)c1-c1ccc2c(c1)CCN(Cc1ccc(C3(C#N)CC3)cc1)C2", "note": "[Compound 162, (S)-2-(tert-butoxy)-2-(5-(2-(4-(1-cyanocyclopropyl)benzyl)-1,2,3,4-tetrahydroisoquinolin-6-yl)-4-(4,4-dimethylpiperidin-1-yl)-2,6-dimethylpyridin-3-yl)acetic acid]", "pEC50": "> 7.00"},
      {"molecule": "COc1cc(CN2CCc3cc(-c4c(C)nc(C)c([C@H](OC(C)(C)C)C(=O)O)c4N4CCC(C)(C)CC4)ccc3C2)ccc1Cl", "note": "[Compound 138, (S)-2-(tert-butoxy)-2-(5-(2-(4-chloro-3-methoxybenzyl)-1,2,3,4-tetrahydroisoquinolin-6-yl)-4-(4,4-dimethylpiperidin-1-yl)-2,6-dimethylpyridin-3-yl)acetic acid]", "pEC50": "> 7.00"},
      {"molecule": "Cc1cc(F)cc(CN2CCc3cc(-c4c(C)nc(C)c([C@H](OC(C)(C)C)C(=O)O)c4N4CCC(C)(C)CC4)ccc3C2)c1", "note": "[Compound 46, (S)-2-(tert-butoxy)-2-(4-(4,4-dimethylpiperidin-1-yl)-5-(2-(3-fluoro-5-methylbenzyl)-1,2,3,4-tetrahydroisoquinolin-6-yl)-2,6-dimethylpyridin-3-yl)acetic acid]", "pEC50": "> 7.00"},
      {"molecule": "COc1cc(F)c(F)cc1CN1CCc2cc(-c3c(C)nc(C)c([C@H](OC(C)(C)C)C(=O)O)c3N3CCC(C)(C)CC3)ccc2C1", "note": "[Compound 86, (S)-2-(tert-butoxy)-2-(5-(2-(4,5-difluoro-2-methoxybenzyl)-1,2,3,4-tetrahydroisoquinolin-6-yl)-4-(4,4-dimethylpiperidin-1-yl)-2,6-dimethylpyridin-3-yl)acetic acid]", "pEC50": "> 7.00"},
      {"molecule": "COc1cc(CN2CCc3cc(-c4c(C)nc(C)c([C@H](OC(C)(C)C)C(=O)O)c4N4CCC(C)(C)CC4)ccc3C2)ccc1C", "note": "[Compound 140, (S)-2-(tert-butoxy)-2-(4-(4,4-dimethylpiperidin-1-yl)-5-(2-(3-methoxy-4-methylbenzyl)-1,2,3,4-tetrahydroisoquinolin-6-yl)-2,6-dimethylpyridin-3-yl)acetic acid]", "pEC50": "> 7.00"},
      {"molecule": "Cc1cccc(Cl)c1CN1CCc2cc(-c3c(C)nc(C)c([C@H](OC(C)(C)C)C(=O)O)c3N3CCC(C)(C)CC3)ccc2C1", "note": "[Compound 23, (S)-2-(tert-butoxy)-2-(5-(2-(2-chloro-6-methylbenzyl)-1,2,3,4-tetrahydroisoquinolin-6-yl)-4-(4,4-dimethylpiperidin-1-yl)-2,6-dimethylpyridin-3-yl)acetic acid]", "pEC50": "> 7.00"},
      {"molecule": "Cc1nc(C)c([C@H](OC(C)(C)C)C(=O)O)c(N2CCC(C)(C)CC2)c1-c1ccc2c(c1)CCN(Cc1ccc(Cl)cc1)C2", "note": "[Compound 56, (S)-2-(tert-butoxy)-2-(5-(2-(4-chlorobenzyl)-1,2,3,4-tetrahydroisoquinolin-6-yl)-4-(4,4-dimethylpiperidin-1-yl)-2,6-dimethylpyridin-3-yl)acetic acid]", "pEC50": "> 7.00"},
      {"molecule": "Cc1nc(C)c([C@H](OC(C)(C)C)C(=O)O)c(N2CCC(C)(C)CC2)c1-c1ccc2c(c1)CCN(Cc1cc(F)c(F)cc1F)C2", "note": "[Compound 49, (S)-2-(tert-butoxy)-2-(4-(4,4-dimethylpiperidin-1-yl)-2,6-dimethyl-5-(2-(2,4,5-trifluorobenzyl)-1,2,3,4-tetrahydroisoquinolin-6-yl)pyridin-3-yl)acetic acid]", "pEC50": "> 7.00"},
      {"molecule": "COc1c(CN2CCc3cc(-c4c(C)nc(C)c([C@H](OC(C)(C)C)C(=O)O)c4N4CCC(C)(C)CC4)ccc3C2)cccc1C(F)(F)F", "note": "[Compound 98, (S)-2-(tert-butoxy)-2-(4-(4,4-dimethylpiperidin-1-yl)-5-(2-(2-methoxy-3-(trifluoromethyl)benzyl)-1,2,3,4-tetrahydroisoquinolin-6-yl)-2,6-dimethylpyridin-3-yl)acetic acid]", "pEC50": "> 7.00"},
      {"molecule": "COc1ccc(CN2CCc3cc(-c4c(C)nc(C)c([C@H](OC(C)(C)C)C(=O)O)c4N4CCC(C)(C)CC4)ccc3C2)c(C)c1C", "note": "[Compound 147, (S)-2-(tert-butoxy)-2-(4-(4,4-dimethylpiperidin-1-yl)-5-(2-(4-methoxy-2,3-dimethylbenzyl)-1,2,3,4-tetrahydroisoquinolin-6-yl)-2,6-dimethylpyridin-3-yl)acetic acid]", "pEC50": "> 7.00"},
      {"molecule": "CCc1ccc(CN2CCc3cc(-c4c(C)nc(C)c([C@H](OC(C)(C)C)C(=O)O)c4N4CCC(C)(C)CC4)ccc3C2)cc1", "note": "[Compound 60, (S)-2-(tert-butoxy)-2-(4-(4,4-dimethylpiperidin-1-yl)-5-(2-(4-ethylbenzyl)-1,2,3,4-tetrahydroisoquinolin-6-yl)-2,6-dimethylpyridin-3-yl)acetic acid]", "pEC50": "> 7.00"},
      {"molecule": "COc1ccc(CN2CCc3cc(-c4c(C)nc(C)c([C@H](OC(C)(C)C)C(=O)O)c4N4CCC(C)(C)CC4)ccc3C2)cc1C", "note": "[Compound 141, (S)-2-(tert-butoxy)-2-(4-(4,4-dimethylpiperidin-1-yl)-5-(2-(4-methoxy-3-methylbenzyl)-1,2,3,4-tetrahydroisoquinolin-6-yl)-2,6-dimethylpyridin-3-yl)acetic acid]", "pEC50": "> 7.00"},
      {"molecule": "Cc1nc(C)c([C@H](OC(C)(C)C)C(=O)O)c(N2CCC(C)(C)CC2)c1-c1ccc2c(c1)CCN(Cc1cc(F)cc(F)c1F)C2", "note": "[Compound 96, (S)-2-(tert-butoxy)-2-(4-(4,4-dimethylpiperidin-1-yl)-2,6-dimethyl-5-(2-(2,3,5-trifluorobenzyl)-1,2,3,4-tetrahydroisoquinolin-6-yl)pyridin-3-yl)acetic acid]", "pEC50": "> 7.00"}
    ]},
    {"test_system": "NL-RLuc virus", "assay": "Inhibition of HIV replication (NL-RLuc reporter virus in MT-2 cells, luciferase readout)", "format": "cell-based", "conditions": "Human immunodeficiency virus 1, MT2, 120 h, read-out: EC50 μM", "excerpt": "as §1", "units": {"EC50": "µM"}, "values": [
      {"molecule": "Cc1cccc(Cl)c1CN1CCc2cc(-c3c(C)nc(C)c([C@H](OC(C)(C)C)C(=O)O)c3N3CCC(C)(C)CC3)ccc2C1", "note": "[Compound 23, (S)-2-(tert-butoxy)-2-(5-(2-(2-chloro-6-methylbenzyl)-1,2,3,4-tetrahydroisoquinolin-6-yl)-4-(4,4-dimethylpiperidin-1-yl)-2,6-dimethylpyridin-3-yl)acetic acid]", "EC50": 0.003},
      {"molecule": "Cc1nc(C)c([C@H](OC(C)(C)C)C(=O)O)c(N2CCC(C)(C)CC2)c1-c1ccc2c(c1)CCN(Cc1cc(F)cc(F)c1F)C2", "note": "[Compound 96, (S)-2-(tert-butoxy)-2-(4-(4,4-dimethylpiperidin-1-yl)-2,6-dimethyl-5-(2-(2,3,5-trifluorobenzyl)-1,2,3,4-tetrahydroisoquinolin-6-yl)pyridin-3-yl)acetic acid]", "EC50": 0.003}
    ]}
  ]
}
